Earlier results in patent publication US12649952B2, “NTRK fusion molecules and uses thereof” (Foundation Medicine, Inc., priority 2019, dated 2026).
Where two headings read alike, the source gives them in different places.

Experiments:
solid tumors [1] = details: Phase 1, 56 solid tumor patients
TrkA = TrkA (Homo sapiens, UniProt P04629); details: for inhibition of Ntrk1 / NTRK1: result in words
solid tumors [2] = details: Phase 1, solid tumors
tumor xenograft models = details: variety of preclinical tumor xenograft models
[3] = system: lung adenocarcinoma with KRAS mutation; details: mouse, in vivo
[4] = system: NTRK1 fusion-positive tumors; details: human, in vivo
[5] = system: NTRK fusion-positive cancers
neuroblastoma = details: human, in vivo
neuroblastoma xenograft = details: in vivo
[6] = system: lung adenocarcinoma cell line
[7] = system: preclinical tumor models including a xenograft model of lung cancer; details: in vivo
NGF dimer = NGF dimer (Homo sapiens, UniProt P01138); details: read-out: KD for binding the NGF dimer
myeloid leukemia cells [8] = system: myeloid leukemia cells
Ntrk1/Hsp90 [9] = system: Ntrk1/Hsp90
Ntrk1/Hsp90 [10] = details: results in degradation and depletion of Ntrk1
myeloid leukemia cells [11] = system: myeloid leukemia cells; remark: listed apart in the source
NTRK gene fusions = details: after further follow-up, expanded patient population (n=159)
preclinical models = details: variety of preclinical models
[12] = system: NTRK fusion-positive AML cell lines
[13] = system: solid tumors with NTRK fusions; details: monotherapy; adult and pediatric patients, with and without CNS metastases

Chain of TrkA (P04629 33-796): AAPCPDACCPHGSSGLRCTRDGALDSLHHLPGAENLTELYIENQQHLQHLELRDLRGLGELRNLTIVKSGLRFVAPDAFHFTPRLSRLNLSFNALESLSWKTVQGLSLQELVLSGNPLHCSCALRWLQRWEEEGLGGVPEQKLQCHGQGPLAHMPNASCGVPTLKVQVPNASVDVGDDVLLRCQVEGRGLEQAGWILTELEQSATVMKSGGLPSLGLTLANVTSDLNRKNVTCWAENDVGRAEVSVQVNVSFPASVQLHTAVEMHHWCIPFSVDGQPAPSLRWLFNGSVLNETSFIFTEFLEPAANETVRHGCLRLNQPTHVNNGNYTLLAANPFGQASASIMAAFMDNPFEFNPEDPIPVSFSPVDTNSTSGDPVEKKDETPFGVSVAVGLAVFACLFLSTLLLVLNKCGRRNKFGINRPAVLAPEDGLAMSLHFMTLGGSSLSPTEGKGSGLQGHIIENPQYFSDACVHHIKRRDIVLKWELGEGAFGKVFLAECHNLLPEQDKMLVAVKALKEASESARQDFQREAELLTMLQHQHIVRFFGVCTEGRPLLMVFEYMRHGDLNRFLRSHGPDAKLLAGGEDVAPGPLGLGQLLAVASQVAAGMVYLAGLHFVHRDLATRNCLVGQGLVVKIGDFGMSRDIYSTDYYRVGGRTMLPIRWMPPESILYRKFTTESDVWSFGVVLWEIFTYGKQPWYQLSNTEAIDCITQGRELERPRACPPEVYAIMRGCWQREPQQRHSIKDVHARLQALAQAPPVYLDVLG
Chain of NGF dimer (P01138 122-241): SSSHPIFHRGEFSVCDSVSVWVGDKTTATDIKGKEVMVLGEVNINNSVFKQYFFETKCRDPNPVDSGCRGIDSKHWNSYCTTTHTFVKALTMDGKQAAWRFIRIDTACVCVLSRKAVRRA

Structure (SMILES): CO[C@@H](C(=O)N1Cc2n[nH]c(NC(=O)c3ccc(N4CCN(C)CC4)cc3)c2C1)c1ccccc1 [danusertib]
- objective response (solid tumors [1]): objective response in one non-small cell lung cancer patient
- tumor regression (solid tumors [1]): tumor regression in an ovarian cancer patient
- inhibition of Ntrk1 / NTRK1 (TrkA): inhibit Ntrk1

Structure (SMILES): CNC(=O)c1nn(C)c2c1C(C)(C)Cc1cnc(Nc3ccc(N4CCN(C)CC4)cc3)nc1-2 [PHA-848125]
- partial response (solid tumors [2]): 2/14
- stable disease (solid tumors [2]): 9/28
- anti-tumor effect (tumor xenograft models): anti-tumor effect
- tumor growth [3]: inhibit tumor growth

Structure (SMILES): C[C@@H](Oc1cc(-c2cnn(C3CCNCC3)c2)cnc1N)c1c(Cl)ccc(F)c1Cl [crizotinib]
- clinical responses [4]: Durable clinical responses

Structure (SMILES): C[C@@H]1CCc2ncc(F)cc2[C@H]2CCCN2c2ccn3ncc(c3n2)C(=O)N1 [LOXO-195]
- confirmed complete or partial response ([5]; 10 of 29 evaluable patients, RECIST 1.1, NTRK fusions resistant to other TRK-targeted therapeutics): 34%
- safety and tolerability ([5]; solid tumor cancer patients with NTRK fusions resistant to other TRK-targeted therapeutics): safe, tolerable

Structure (SMILES): C[C@]12O[C@H](C[C@]1(O)CO)n1c3ccccc3c3c4c(c5c6ccccc6n2c5c31)CNC4=O [lestaurtinib, (5S,6S,8R)-6-hydroxy-6-(hydroxymethyl)-5-methyl-7,8,14,15-tetrahydro-5H-16-oxa-4b,8a,14-triaza-5,8-methanodibenzo[b,h]cycloocta[jkl]cyclopenta[e]-as-indacen-13(6H)-one]
- efficacy in clinical trials (neuroblastoma): effective
- tumor growth (neuroblastoma xenograft): inhibit tumor growth

Structure (SMILES): COC(=O)[C@@]1(O)C[C@H]2O[C@]1(C)n1c3ccccc3c3c4c(c5c6ccccc6n2c5c31)C(=O)NC4 [K252a, (9S-(9a, 108,12a))-2,3,9,10,11,12-hexahydro-10-hydroxy-10-(methoxycarbonyl)-9-methyl-9,12-epoxy-1H-diindolo [1,2,3-fg: 3′,2′,1′-kl] pyrrolo [3,4-i][1,6] benzodiazocin-1-one]
- activation of the anti-apoptotic protein Akt [6]: block activation
- cell death [6]: promote cell death
- tumor cell growth [6]: reduce tumor cell growth

Structure (SMILES): CC(C)Oc1cc(Nc2nc(N[C@@H](C)c3ccc(F)cn3)ncc2Cl)n[nH]1 [AZ-23, 5-chloro-N-[(1S)-1-(5-fluoropyridin-2-yl)ethyl]-N′-(5-propan-2-yloxy-1H-pyrazol-3-yl)pyrimidine-2,4-diamine]
- tumor growth (neuroblastoma xenograft): inhibit tumor growth

Structure (SMILES): Nc1ncc(-c2cnn(C3CCNCC3)c2)cc1-c1nc2ccccc2o1 [KRC-108]
- antiproliferative activity [7]: antiproliferative activity
- inhibition of Ntrk1 / NTRK1 (TrkA): inhibit NTRK1

Structure (SMILES): Cc1cc2nc3c(=O)[nH]c(=O)nc-3n(C)c2cc1C=O [Ro 08-2750]
- Kd (NGF dimer): ~1 µM

Structure (SMILES): CO[C@H]1/C=C\C=C(/C)C(=O)NC2=CC(=O)C(NCCN(C)C)=C(C[C@@H](C)C[C@H](OC)[C@H](O)[C@@H](C)/C=C(\C)[C@@H]1OC(N)=O)C2=O [17-DMAG]
- growth of myeloid leukemia cells (myeloid leukemia cells [8]): reduced the growth of myeloid leukemia cells
- Ntrk1/Hsp90 binding (Ntrk1/Hsp90 [9]): disrupted Ntrk1/Hsp90 binding
- Ntrk1 level (Ntrk1/Hsp90 [9]; consequence of disrupted Ntrk1/Hsp90 binding): degradation and depletion of Ntrk1
- Ntrk1/Hsp90 binding (Ntrk1/Hsp90 [10]): disrupted Ntrk1/Hsp90 binding
- growth of myeloid leukemia cells (myeloid leukemia cells [11]): reduced the growth of myeloid leukemia cells

Structure (SMILES): O=C(Nc1cnn2ccc(N3CCC[C@@H]3c3cc(F)ccc3F)nc12)N1CC[C@H](O)C1 [Larotrectinib, larotrectinib]
- overall response rate (ORR) (NTRK fusion cancers; NTRK fusion cancers, current clinical trials): 75%
- responses ongoing, share of patients (NTRK fusion cancers; at 12 months of treatment): 75-81%
- CR observed, share of patients (NTRK fusion cancers; combined Phase 1, Phase 1/2 and Phase 2 data): 17%
- ORR (NTRK fusion cancers; combined Phase 1, Phase 1/2 and Phase 2 data, adult and pediatric patients, various solid tumors harboring NTRK fusions (88/109)): 81%
- intracranial efficacy (NTRK fusion cancers; individuals with NTRK fusion-positive gliomas or brain metastases): demonstrated
- median duration of response (NTRK gene fusions): 35.2 (22.7—not evaluable [NE]) months
- overall response rate (NTRK gene fusions): 79%

Structure (SMILES): NC(=O)Nc1snc(S[C@@H]2CCCCc3ccccc32)c1C(N)=O [isothiazole 5n]
- IC50 (TrkA): < 0.001 µM

Structure (SMILES): CO[C@]1(COC(=O)CCNC(=O)[C@@H](N)CCCCN)C[C@H]2O[C@]1(C)n1c3ccccc3c3c4c(c5c6ccccc6n2c5c31)C(=O)NC4 [CEP-2563]
- anti-tumor activity (preclinical models): anti-tumor activity

Structure (SMILES): CN1CCN(c2ccc(C(=O)Nc3n[nH]c4ccc(Cc5cc(F)cc(F)c5)cc34)c(NC3CCOCC3)c2)CC1 [entrectinib, N-[5-(3,5-Difluorobenzyl)-1H-indazol-3-yl]-4-(4-methyl-1-piperazinyl)-2-(tetrahydro-2H-pyran-4-ylamino)benzamide]
- sensitivity of cell lines [12]: preclinical sensitivity
- clinical benefit [13]: Clinical benefit
